From patent US8084457B2, “Pharmaceutically active 4,6-disubstituted aminopyrimidine derivatives as modulators of protein kinases” (Lead Discovery Center GmbH, priority 2003, dated 2011)

Experiments:
Type in all cases: biochemical
[1] = biological target: CDK4 (Homo sapiens, UniProt P11802); test: Kinase assay, CDK4 activity range (Table 2)
[2] = biological target: T1, CDK9/Cyclin T1 (Homo sapiens, UniProt P50750); test: Kinase assay using CDK9/Cyclin T1; settings: read-out: CDK9 (activity range)
T1 construct: made in house; host or cells: HEK293 cells, recombinant adenovirus
T1 sequence (P50750 whole entry): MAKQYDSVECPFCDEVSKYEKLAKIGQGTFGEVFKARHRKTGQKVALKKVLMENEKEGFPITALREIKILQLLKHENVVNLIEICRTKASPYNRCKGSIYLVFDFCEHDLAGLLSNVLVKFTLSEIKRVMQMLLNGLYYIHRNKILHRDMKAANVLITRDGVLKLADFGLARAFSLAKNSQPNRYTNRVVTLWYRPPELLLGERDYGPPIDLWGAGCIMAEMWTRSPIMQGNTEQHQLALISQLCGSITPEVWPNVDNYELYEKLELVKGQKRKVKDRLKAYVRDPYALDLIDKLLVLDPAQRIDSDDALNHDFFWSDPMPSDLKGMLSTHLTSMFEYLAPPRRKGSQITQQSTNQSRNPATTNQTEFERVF
T1 sequence (O60563 whole entry partner): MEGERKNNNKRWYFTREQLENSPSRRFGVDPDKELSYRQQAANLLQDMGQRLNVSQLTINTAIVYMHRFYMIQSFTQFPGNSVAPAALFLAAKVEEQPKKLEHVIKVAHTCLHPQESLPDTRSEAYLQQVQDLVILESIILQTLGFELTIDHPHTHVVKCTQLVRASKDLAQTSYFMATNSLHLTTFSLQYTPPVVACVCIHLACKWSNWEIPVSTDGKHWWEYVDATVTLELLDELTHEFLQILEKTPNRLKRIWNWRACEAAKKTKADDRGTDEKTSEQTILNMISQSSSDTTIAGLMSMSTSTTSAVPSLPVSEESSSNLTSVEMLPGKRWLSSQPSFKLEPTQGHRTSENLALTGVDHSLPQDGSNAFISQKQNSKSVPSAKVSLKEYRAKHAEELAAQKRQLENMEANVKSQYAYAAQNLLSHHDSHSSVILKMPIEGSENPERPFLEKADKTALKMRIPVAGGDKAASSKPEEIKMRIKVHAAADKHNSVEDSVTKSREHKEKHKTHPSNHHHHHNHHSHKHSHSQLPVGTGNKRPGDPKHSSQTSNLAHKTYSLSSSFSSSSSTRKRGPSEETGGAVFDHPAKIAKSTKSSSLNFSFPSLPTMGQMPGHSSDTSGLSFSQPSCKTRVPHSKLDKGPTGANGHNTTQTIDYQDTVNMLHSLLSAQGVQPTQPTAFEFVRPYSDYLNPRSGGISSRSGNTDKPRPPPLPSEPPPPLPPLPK
Method in brief: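 Recombinant CDK9/Cyclin T1 produced via adenoviral expression from gateway-cloned cDNAs. Kinase reaction run essentially per a published protocol.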

[3] = biological target: T2, CDK2/CyclinA (Homo sapiens, UniProt P24941); test: Kinase assay determining CDK2/CyclinA activity; settings: read-out: CDK2 (activity range)
T2 construct: purchased Proqinase
Description: Kinase Assays Determining CDK2/CyclinA and CDK5/p35 Activity:
Kinase assays were performed as described by the manufacturers recommendations (Proqinase for CDK2/CyclinA and Upsate for CDK5/p35).

Chain of CDK4 (P11802 whole entry, species assumed): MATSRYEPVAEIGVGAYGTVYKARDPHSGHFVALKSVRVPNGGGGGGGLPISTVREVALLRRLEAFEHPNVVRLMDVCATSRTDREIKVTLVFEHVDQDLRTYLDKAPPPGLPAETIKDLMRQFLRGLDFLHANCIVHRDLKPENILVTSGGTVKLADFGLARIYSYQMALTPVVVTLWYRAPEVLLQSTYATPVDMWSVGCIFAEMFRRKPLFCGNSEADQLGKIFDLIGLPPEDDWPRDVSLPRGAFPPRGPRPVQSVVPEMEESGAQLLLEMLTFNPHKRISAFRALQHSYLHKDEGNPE
Chain of CDK4 (P24385 whole entry partner, species assumed): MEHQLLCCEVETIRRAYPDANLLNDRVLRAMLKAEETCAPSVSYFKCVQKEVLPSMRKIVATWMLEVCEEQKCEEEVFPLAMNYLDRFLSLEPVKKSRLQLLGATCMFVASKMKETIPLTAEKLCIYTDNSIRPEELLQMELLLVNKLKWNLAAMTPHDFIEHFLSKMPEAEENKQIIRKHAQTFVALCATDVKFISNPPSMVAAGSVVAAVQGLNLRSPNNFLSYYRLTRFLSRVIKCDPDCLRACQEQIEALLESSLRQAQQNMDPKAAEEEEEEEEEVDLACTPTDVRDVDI

Row | Structure (SMILES) | IC50 [1] [nM] | IC50 [2] [nM] | IC50 [3] [nM]
1 | COc1ncccc1-c1cc(Nc2ccc(NC(=O)[C@@H]3CCCCN3)cc2)ncn1 [(171)] | 1000 to 10000 | 1 to 1000 | 1000 to 10000
2 | Cc1ccc(Nc2cc(-c3cccc(C(F)(F)F)c3)ncn2)cc1NS(C)(=O)=O [(107)] | 10000 to 250000 | 10000 to 250000 | 10000 to 250000
3 | NC(=O)c1ccc(Nc2cc(-c3ccccc3OCc3ccccc3)ncn2)cc1 [(95)] | 1000 to 10000 | 1 to 1000 | 1 to 1000
4 | Cc1ccc(Nc2cc(-c3ccccc3)ncn2)cc1NS(C)(=O)=O [(106)] | 10000 to 250000 | 1 to 1000 | 1 to 1000
5 | COc1ccccc1-c1cc(Nc2cccc(S(N)(=O)=O)c2)ncn1 [(150)] | 10000 to 250000 | 1 to 1000 | 1 to 1000
6 | COc1ccccc1-c1cc(Nc2cccc(N)c2)ncn1 [(124)] | 1000 to 10000 | 1 to 1000 | 1 to 1000
7 | CC(=O)Nc1cccc(-c2cc(Nc3ccc(C)c(NS(C)(=O)=O)c3)ncn2)c1 [(104)] | 10000 to 250000 | 1 to 1000 | 1000 to 10000
8 | COc1ccc(-c2cc(Nc3ccc(NC(=O)c4ccc(N)cc4)cc3)ncn2)c(OC)c1 [(31)] | – | 1 to 1000 | 1 to 1000
9 | Nc1cccc(-c2cc(Nc3ccc(S(N)(=O)=O)cc3)ncn2)c1 [(117)] | – | 1000 to 10000 | 1 to 1000
10 | CC(C)Oc1ccccc1-c1cc(Nc2ccc(C(=O)N[C@@H]3CCCC[C@H]3N)cc2)ncn1 (racemic) [(199)] | 1000 to 10000 | 1 to 1000 | 1000 to 10000
11 | Nc1ccc(C(=O)Nc2ccc(Nc3cc(-c4ccccc4O)ncn3)cc2)cc1 [(151)] | – | 10000 to 250000 | 10000 to 250000
12 | Nc1ccc(C(=O)Nc2ccc(Nc3cc(-c4ccncc4)ncn3)cc2)cc1 [(67)] | – | 10000 to 250000 | 10000 to 250000

Results, then the molecule that gave them:

Row | IC50 [1] [nM] | IC50 [2] [nM] | IC50 [3] [nM] | Structure (SMILES)
13 | 1000 to 10000 | 1000 to 10000 | – | COc1ccccc1-c1cc(Nc2ccc(C(=O)N3CCOCC3)cc2)ncn1 [(147)]
14 | 1000 to 10000 | 1 to 1000 | 1000 to 10000 | COc1ccccc1-c1cc(Nc2ccc(NC(=O)C3CCCN(C)C3)cc2)ncn1 (stereo not shown) [(87)]
15 | 1000 to 10000 | 1000 to 10000 | 10000 to 250000 | COc1cccc(-c2cc(Nc3ccc(NC(=O)[C@@H]4CCCCN4)cc3)ncn2)c1OC [(186)]
16 | 1 to 1000 | 1 to 1000 | 1 to 1000 | COc1ccccc1-c1cc(Nc2ccc(N3CCCC3=O)cc2)ncn1 [(9)]
17 | 1000 to 10000 | 1 to 1000 | 1000 to 10000 | COc1ccccc1-c1cc(Nc2ccc(C(=O)N[C@@H]3CCCC[C@H]3N)cc2)ncn1 (racemic) [(83)]
18 | 1000 to 10000 | 1 to 1000 | 1000 to 10000 | COc1ccccc1-c1cc(Nc2ccc(NC(=O)[C@H]3CCCN3)cc2)ncn1 [(91)]
19 | 1000 to 10000 | 1 to 1000 | 1000 to 10000 | CCN(CC)CCC(=O)Nc1ccc(Nc2cc(-c3ccccc3OC)ncn2)cc1 [(64)]
20 | 1000 to 10000 | 1 to 1000 | 1000 to 10000 | COc1ccccc1-c1cc(Nc2ccc(NC(=O)C3(N)CCCC3)cc2)ncn1 [(68)]
21 | 1 to 1000 | 1 to 1000 | 1000 to 10000 | COc1ccc(-c2cc(Nc3ccc(NC(=O)[C@@H]4CCCCN4)cc3)ncn2)c(OC)c1 [(187)]
22 | 1000 to 10000 | 1 to 1000 | 1000 to 10000 | CC[C@H](C)[C@H](N)C(=O)Nc1ccc(Nc2cc(-c3ccccc3OC)ncn2)cc1 [(140)]
23 | 1 to 1000 | 1 to 1000 | 1000 to 10000 | CNC(C)(C)C(=O)Nc1ccc(Nc2cc(-c3ccccc3OC)ncn2)cc1 [(118)]
24 | – | 1 to 1000 | 1 to 1000 | COc1ccccc1-c1cc(Nc2ccc(NS(=O)(=O)C(C)C)cc2)ncn1 [(153)]
25 | – | 1000 to 10000 | 1000 to 10000 | COc1ccccc1-c1cc(Nc2ccc(C(=O)NC(C)(C)C)cc2)ncn1 [(54)]
26 | – | 1 to 1000 | 1000 to 10000 | COc1ccccc1-c1cc(Nc2ccc(NC(=O)NC(C)(C)C)cc2)ncn1 [(113)]
